Laboratory results published in PubChem BioAssay (NCI).
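48-hour exposure; five concentrations; linearly interpolated endpoints. Abbreviation: GI50, concentration required for 50% inhibition of growth. The concentration for full growth arrest is given as TGI.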

Columns and labels:
Test in all cases: NCI tumour cell line growth inhibition, 48 h
[1] = tested on: MDA-MB-435
[2] = tested on: SW-620 colon
[3] = tested on: HOP-62 NSCLC
[4] = tested on: A498 renal
[5] = tested on: HCT-15 colon
[6] = tested on: SNB-75 CNS
[7] = tested on: 786-0 renal
[8] = tested on: SK-MEL-2 melanoma
[9] = tested on: IGROV1 ovarian
[10] = tested on: OVCAR-3 ovarian
[11] = tested on: A549 NSCLC
[12] = tested on: T-47D breast
[13] = tested on: NCI-H226 lung
[14] = tested on: U251 CNS
[15] = tested on: UACC-62 melanoma
[16] = tested on: RXF 393 renal
[17] = tested on: EKVX NSCLC
[18] = tested on: MOLT-4 leukemia
[19] = tested on: MALME-3M melanoma
[20] = tested on: PC-3 prostate
[21] = tested on: K-562 leukemia
[22] = tested on: SF-539 CNS
[23] = tested on: TK-10 renal
[24] = tested on: SF-295 CNS
[25] = tested on: SNB-19 CNS
[26] = tested on: HOP-92 NSCLC
[27] = tested on: RPMI-8226 leukemia
[28] = tested on: CAKI-1 renal
[29] = tested on: COLO 205 colon
[30] = tested on: NCI/ADR-RES ovarian
[31] = tested on: ACHN renal
[32] = tested on: BT-549 breast
[33] = tested on: HS 578T breast
[34] = tested on: OVCAR-4 ovarian
[35] = tested on: HCC-2998 colon
[36] = tested on: MDA-MB-231 breast
[37] = tested on: SN12C renal
[38] = tested on: CCRF-CEM leukemia
[39] = tested on: M14 melanoma
[40] = tested on: NCI-H23 lung
[41] = tested on: NCI-H522 lung
[42] = tested on: SF-268 CNS
[43] = tested on: SK-OV-3 ovarian
[44] = tested on: NCI-H460 lung
[45] = tested on: UACC-257 melanoma
[46] = tested on: KM12 colon
[47] = tested on: SR leukemia
[48] = tested on: HT29 colon
[49] = tested on: HL-60(TB) leukemia
[50] = tested on: SK-MEL-28 melanoma
[51] = tested on: UO-31 renal
[52] = tested on: SK-MEL-5 melanoma
[53] = tested on: DU-145 prostate
[54] = tested on: OVCAR-5 ovarian
[55] = tested on: MCF7 breast
[56] = tested on: OVCAR-8 ovarian
[57] = tested on: LOX IMVI melanoma
[58] = tested on: HCT-116 colon

## COc1ccc(C(=O)c2cc(OC)c(OC)c(OC)c2)cc1/C=C/C(=O)c1ccc(O)cc1
[1]
  GI50: 1.18 µM
  TGI: 11.3 µM
[2]
  GI50: 2.51 µM
  TGI: 10.2 µM
[3]
  GI50: 21.1 µM
  TGI: 53.4 µM
[4]
  GI50: 3.14 µM
  TGI: 15.1 µM
[5]
  GI50: 2.15 µM
  TGI: 7.42 µM
[6]
  GI50: 1.62 µM
  TGI: 4.77 µM
[7]
  GI50: 1.66 µM
  TGI: 3.74 µM
[8]
  GI50: 5.01 µM
  TGI: 26.5 µM
[9]
  GI50: 9.94 µM
  TGI: 34.8 µM
[10]
  GI50: 3 µM
  TGI: 8.47 µM
[11]
  GI50: 18.7 µM
  TGI: > 100 µM
[12]
  GI50: 19 µM
  TGI: > 100 µM
[13]
  GI50: 2.5 µM
  TGI: 7.78 µM
[14]
  GI50: 4.58 µM
  TGI: 18.3 µM
[15]
  GI50: 1.69 µM
  TGI: 3.77 µM
[16]
  GI50: 3.57 µM
  TGI: 14.9 µM
[17]
  GI50: 4.55 µM
  TGI: 19.4 µM
[18]
  GI50: 0.841 µM
  TGI: > 100 µM
[19]
  GI50: 9.69 µM
  TGI: 25.1 µM
[20]
  GI50: 1.69 µM
  TGI: 4.71 µM
[21]
  GI50: 0.357 µM
  TGI: > 100 µM
[22]
  GI50: 2.72 µM
  TGI: 7.9 µM
[23]
  GI50: 11.8 µM
  TGI: 28.5 µM
[24]
  GI50: 6.5 µM
  TGI: 20.1 µM
[25]
  GI50: 4.42 µM
  TGI: 19.7 µM
[26]
  GI50: 1.21 µM
  TGI: 3.31 µM
[27]
  GI50: 1.56 µM
  TGI: 82.9 µM
[28]
  GI50: 3.07 µM
  TGI: 17.3 µM
[29]
  GI50: 15.1 µM
  TGI: 36.3 µM
[30]
  GI50: 2.68 µM
  TGI: 8.09 µM
[31]
  GI50: 5.22 µM
  TGI: 21.5 µM
[32]
  GI50: 2.02 µM
  TGI: 5.32 µM
[33]
  GI50: 18.3 µM
  TGI: > 100 µM
[34]
  GI50: 2.73 µM
  TGI: 58.4 µM
[35]
  GI50: 1.66 µM
  TGI: 3.16 µM
[36]
  GI50: 4.02 µM
  TGI: 24.9 µM
[37]
  GI50: 2.66 µM
  TGI: 12.6 µM
[38]
  GI50: 0.872 µM
  TGI: > 100 µM
[39]
  GI50: 1.98 µM
  TGI: 5.86 µM
[40]
  GI50: 2.93 µM
  TGI: 10.2 µM
[41]
  GI50: 2.69 µM
  TGI: 15.8 µM
[42]
  GI50: 3.98 µM
  TGI: 95.1 µM
[43]
  GI50: 16.3 µM
  TGI: > 100 µM
[44]
  GI50: 2.56 µM
  TGI: 7.23 µM
[45]
  GI50: 7.77 µM
  TGI: 26.6 µM
[46]
  GI50: 2.44 µM
  TGI: 7.05 µM
[47]
  GI50: 0.433 µM
  TGI: > 100 µM
[48]
  GI50: 5.35 µM
  TGI: > 100 µM
[49]
  GI50: 0.693 µM
  TGI: > 100 µM
[50]
  GI50: 4.75 µM
  TGI: 17.5 µM
[51]
  GI50: 3.2 µM
  TGI: 16.2 µM
[52]
  GI50: 1.46 µM
  TGI: 2.98 µM
[53]
  GI50: 1.88 µM
  TGI: 3.45 µM
[54]
  GI50: 11.2 µM
  TGI: 25.1 µM
[55]
  GI50: 3.16 µM
  TGI: 15.9 µM
[56]
  GI50: 4.48 µM
  TGI: > 100 µM
[57]
  GI50: 1.75 µM
  TGI: 3.9 µM
[58]
  GI50: 1.58 µM
  TGI: 3.33 µM

## COc1ccc(/C=C(\C#N)n2nnc3cc(Cl)ccc32)cc1
[1]
  GI50: 0.124 µM
  TGI: 0.342 µM
[2]
  GI50: 0.351 µM
  TGI: > 100 µM
[3]
  GI50: 0.887 µM
  TGI: 11.1 µM
[4]
  GI50: 0.201 µM
  TGI: 3.11 µM
[5]
  GI50: 0.328 µM
  TGI: 11.4 µM
[6]
  GI50: 0.193 µM
  TGI: 0.983 µM
[7]
  GI50: 0.709 µM
  TGI: 8.61 µM
[8]
  GI50: 0.483 µM
  TGI: > 47.6 µM
[9]
  GI50: 0.606 µM
  TGI: > 37.9 µM
[10]
  GI50: 0.253 µM
  TGI: 0.695 µM
[11]
  GI50: 0.714 µM
  TGI: > 100 µM
[12]
  GI50: 0.407 µM
[13]
  GI50: 1.27 µM
  TGI: > 23.3 µM
[14]
  GI50: 0.63 µM
  TGI: 9.53 µM
[15]
  GI50: 0.382 µM
  TGI: 9.66 µM
[16]
  GI50: 0.787 µM
  TGI: 2.62 µM
[17]
  GI50: 1.47 µM
  TGI: > 78 µM
[18]
  GI50: 1.09 µM
  TGI: > 100 µM
[19]
  GI50: 1.22 µM
  TGI: 11.3 µM
[20]
  GI50: 0.498 µM
  TGI: > 75.2 µM
[21]
  GI50: 0.217 µM
  TGI: > 100 µM
[22]
  GI50: 1.25 µM
  TGI: 3.5 µM
[23]
  GI50: 1.65 µM
  TGI: 11.5 µM
[24]
  GI50: 1.18 µM
  TGI: 6.43 µM
[25]
  GI50: 1.12 µM
  TGI: > 41.4 µM
[26]
  GI50: 0.552 µM
  TGI: 4.27 µM
[27]
  GI50: 0.694 µM
  TGI: > 100 µM
[28]
  GI50: 0.461 µM
  TGI: > 100 µM
[29]
  GI50: 0.513 µM
  TGI: 7.01 µM
[30]
  GI50: 0.299 µM
  TGI: 4.58 µM
[31]
  GI50: 0.593 µM
  TGI: > 43.5 µM
[32]
  GI50: 1.13 µM
  TGI: > 100 µM
[33]
  GI50: 2.55 µM
  TGI: 9.37 µM
[34]
  GI50: 2.51 µM
  TGI: > 100 µM
[35]
  GI50: 1.87 µM
  TGI: 8.14 µM
[36]
  GI50: 1.09 µM
  TGI: 10.2 µM
[37]
  GI50: 0.662 µM
  TGI: > 100 µM
[38]
  GI50: 0.431 µM
  TGI: > 100 µM
[39]
  GI50: 0.373 µM
  TGI: 6.63 µM
[40]
  GI50: 1.67 µM
  TGI: > 33.6 µM
[41]
  GI50: 0.18 µM
  TGI: 0.704 µM
[42]
  GI50: 2 µM
  TGI: > 100 µM
[43]
  GI50: 7.09 µM
  TGI: > 82.3 µM
[44]
  GI50: 2.83 µM
  TGI: > 56.6 µM
[45]
  GI50: 2.4 µM
  TGI: > 100 µM
[46]
  GI50: 1.33 µM
  TGI: 37.1 µM
[47]
  GI50: 0.336 µM
  TGI: > 100 µM
[48]
  GI50: 0.334 µM
  TGI: > 100 µM
[49]
  GI50: 0.327 µM
  TGI: > 100 µM
[50]
  GI50: 1.33 µM
  TGI: 31.2 µM
[51]
  GI50: 2.2 µM
  TGI: 32.4 µM
[52]
  GI50: 2.36 µM
  TGI: 10.6 µM
[53]
  GI50: 1.71 µM
  TGI: 7.58 µM
[54]
  GI50: 1.4 µM
  TGI: 6.44 µM
[55]
  GI50: 0.375 µM
  TGI: > 33.3 µM
[56]
  GI50: 0.751 µM
  TGI: > 100 µM
[57]
  GI50: 0.887 µM
  TGI: 9.4 µM
[58]
  GI50: 0.412 µM
  TGI: 26.2 µM
